Experimental data taken from publication PMC3434127, “Insights into Phosphate Cooperativity and Influence of Substrate Modifications on Binding and Catalysis of Hexameric Purine Nucleoside Phosphorylases” (PLoS ONE, 2012).

Biological target: T1, BsPNP233 (Bacillus subtilis, UniProt O34925)
T1 construct: gene deoD; full length, 233 residues, N-terminal His-tag kept (eight tag residues seen in one crystal form), recombinant from E. coli, homohexamer (D3); active site at dimer interface
T1 sequence (O34925 1-233): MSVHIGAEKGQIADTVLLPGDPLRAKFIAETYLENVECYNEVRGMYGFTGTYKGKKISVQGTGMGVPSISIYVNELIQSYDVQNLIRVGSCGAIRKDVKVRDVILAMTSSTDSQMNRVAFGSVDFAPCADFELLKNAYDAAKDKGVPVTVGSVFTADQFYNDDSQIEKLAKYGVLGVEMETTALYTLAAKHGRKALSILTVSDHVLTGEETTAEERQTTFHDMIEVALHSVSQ
Experiment: X-ray crystal structure (soaked crystal)
Format: binding

[1] = crystals grown in 0.1 M sodium acetate pH 4.6, 3.2 M NaCl, 5% glycerol, 291 K, nucleoside site

| Structure (SMILES) | X-ray crystal structure (soaked crystal) [1] | other results |
| --- | --- | --- |
| Nc1nc2c(ncn2COCCO)c(=O)[nH]1 [ACV, aciclovir] |  | X-ray crystal structure (soaked crystal) (crystals grown in 0.1 M sodium acetate pH 4.6, 3.2 M NaCl, 5% glycerol, 291 K, nucleoside site, two conformations of the acyclic chain, half-occupancy phosphate modelled): Aciclovir binds to the BsPNP233 nucleoside binding site |
| Nc1ncnc2[nH]cnc12 [Ade, adenine] |  | X-ray crystal structure (soaked crystal) (purine-binding site, solved without (4DAO) and with sulfate (form I, 4D8V)): The BsPNP233-Ade binary complex was solved with (BsPNP233-Ade-SO4) or without (BsPNP233-Ade) sulfate ion |
| Nc1ncnc2c1ncn2[C@@H]1O[C@H](CO)[C@@H](O)[C@H]1O [Ado, adenosine] | The base moiety of adenosine (Ado) binds to the BsPNP233 active site |  |
| Nc1nc2c(nc(Br)n2[C@@H]2O[C@H](CO)[C@@H](O)[C@H]2O)c(=O)[nH]1 [Br-Guo, 8-bromoguanosine] | The ribosyl moiety of Br-Guo presents a typical C4′–endo conformation and binds to the active site |  |
| Nc1nc(Cl)c2ncn([C@@H]3O[C@H](CO)[C@@H](O)[C@H]3O)c2n1 [Cl-Guo, 6-chloroguanosine] | The molecule Cl-Guo displays a similar binding mode to that observed for dGuo |  |
| Nc1nc(F)nc2c1ncn2[C@@H]1O[C@H](CO)[C@@H](O)[C@H]1O [F-Ado, 2-fluoradenosine] | The crystal structure of BsPNP233-(F-Ado) complex had two BsPNP233 subunits per asymmetric unit |  |
| Nc1nc2c(ncn2COC(CO)CO)c(=O)[nH]1 [GCV, ganciclovir] | GCV binds to the nucleoside binding site of BsPNP233 |  |
| O=c1[nH]cnc2nc[nH]c12 [Hyp, hypoxanthine] |  | X-ray crystal structure (soaked crystal) (crystals grown in 0.1 M sodium acetate pH 4.6, 3.2 M NaCl, 5% glycerol, 291 K, purine-binding site, glycerol in ribose site): crystal structures of BsPNP233 in complex with hypoxanthine (Hyp) and adenine (Ade) |
| Nc1ncnc2c1ccn2[C@@H]1O[C@H](CO)[C@@H](O)[C@H]1O [TBN, tubercidin] | TBN presented an interaction mode very similar to that seen for the natural substrate adenosine |  |
